Source: US20140249135A1, “PIM KINASE INHIBITORS AND METHODS OF THEIR USE” (NOVARTIS AG, priority 2007, published 2014)
Read-outs that look alike come from different tables or passages of the source.

How the values were obtained:
Type in all cases: biochemical
Pim2 kinase = Pim2 kinase (Homo sapiens, UniProt Q9P1W9); assay: Pim2 ATP depletion assay;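 further: Luciferase-based luminescent readout of ATP remaining after PIM2 phosphorylates a BAD peptide, final 5 nM enzyme, 4 µM ATP, 10 µM peptide, 2.5% DMSO, run to roughly half ATP consumption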
Pim3 kinase = Pim3 kinase (Homo sapiens, UniProt Q86V86); assay: Pim3 ATP depletion assay
Pim1 kinase = Pim1 kinase (Homo sapiens, UniProt P11309); assay: Pim1 ATP depletion assay; conditions: Pim1 ATP depletion assay;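 further: Luciferase-luciferin luminescence readout of residual ATP after PIM1 transfers phosphate to a peptide substrate, 40 µM ATP added, reaction run to roughly half ATP consumption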
Chain of Pim1 kinase (P11309 whole entry): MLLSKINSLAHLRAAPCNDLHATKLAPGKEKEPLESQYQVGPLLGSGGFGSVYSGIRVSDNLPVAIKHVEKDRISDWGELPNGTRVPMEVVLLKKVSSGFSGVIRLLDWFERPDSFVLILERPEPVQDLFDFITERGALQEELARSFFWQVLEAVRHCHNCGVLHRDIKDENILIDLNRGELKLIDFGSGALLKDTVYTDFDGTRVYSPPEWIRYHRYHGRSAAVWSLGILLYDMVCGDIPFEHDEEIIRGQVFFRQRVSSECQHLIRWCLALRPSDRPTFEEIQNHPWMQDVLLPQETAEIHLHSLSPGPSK

Chain of Pim2 kinase (Q9P1W9 whole entry): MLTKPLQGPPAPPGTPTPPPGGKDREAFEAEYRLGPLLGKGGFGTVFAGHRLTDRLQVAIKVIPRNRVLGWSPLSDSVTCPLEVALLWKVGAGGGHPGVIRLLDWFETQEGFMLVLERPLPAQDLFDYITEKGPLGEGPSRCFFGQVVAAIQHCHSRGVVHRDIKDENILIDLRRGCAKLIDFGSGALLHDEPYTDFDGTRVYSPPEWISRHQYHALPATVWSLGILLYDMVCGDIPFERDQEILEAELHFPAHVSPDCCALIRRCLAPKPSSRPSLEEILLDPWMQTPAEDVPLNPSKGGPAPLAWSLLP

| IC50 (Pim2 kinase; read-out: IC50 (μM) PIM2) [µM] | IC50 (Pim3 kinase; read-out: IC50 (μM) PIM3) [µM] | IC50 (Pim1 kinase; read-out: IC50 (μM) PIM1) [µM] | IC50 (Pim2 kinase; read-out: PIM2 IC50) [µM] | IC50 (Pim3 kinase; read-out: PIM3 IC50) [µM] | IC50 (Pim1 kinase; read-out: PIM1 IC50) [µM] | SMILES |
| --- | --- | --- | --- | --- | --- | --- |
| < 1 | < 1 | < 1 |  |  |  | Nc1ccc(-c2cccs2)nc1C(=O)Nc1cnccc1N1CCC[C@H](N)C1 [Example 475, 3-Amino-6-thiophen-2-yl-pyridine-2-carboxylic acid (3-amino-3,4,5,6-tetrahydro-2H-[1,4′]bipyridinyl-3′-yl)-amide] |
| < 1 | < 1 | < 1 |  |  |  | CC(=O)Nc1cccc(-c2nc(C(=O)Nc3cnccc3N3CCC[C@H](N)C3)c(N)cc2F)c1 [Example 500, 6-(3-Acetylamino-phenyl)-3-amino-5-fluoro-pyridine-2-carboxylic acid (3-amino-3,4,5,6-tetrahydro-2H-[1,4′]bipyridinyl-3′-yl)-amide] |
| < 1 | < 1 | < 1 |  |  |  | Nc1cc(-c2ccncc2NC(=O)c2cccc(-c3ccccc3F)n2)nc(C(F)(F)F)n1 [Example 529, 6-(2-Fluoro-phenyl)-pyridine-2-carboxylic acid [4-(6-amino-2-trifluoromethyl-pyrimidin-4-yl)-pyridin-3-yl]-amide] |
| < 1 | < 1 | < 1 |  |  |  | Nc1ccc(C2CCCCC2)nc1C(=O)Nc1cnccc1N1C[C@@H](N)C[C@@H](F)C1 [Example 284, 3-Amino-6-cyclohexyl-pyridine-2-carboxylic acid (3-amino-5-fluoro-3,4,5,6-tetrahydro-2H-[1,4′]bipyridinyl-3′-yl)-amide] |
|  |  |  | < 1 | < 1 | < 1 | CC(C)NC(=O)c1ccc(F)c(-c2ccc(N)c(C(=O)Nc3cnccc3N3CCC[C@H](O)C3)n2)c1 [Example 651, 3-Amino-6-(2-fluoro-5-isopropylcarbamoyl-phenyl)-pyridine-2-carboxylic acid (3-hydroxy-3,4,5,6-tetrahydro-2H-[1,4′]bipyridinyl-3′-yl)-amide] |
| < 1 | < 1 | < 1 |  |  |  | Nc1cc(F)cnc1C(=O)Nc1cnccc1N1CCC[C@H](N)C1 [Example 260, 3-amino-N-{4-[(3S)-3-amino-piperidin-1-yl]pyridin-3-yl}-5-fluoropyridine-2-carboxamide] |
| < 1 | < 1 | < 1 |  |  |  | Nc1cc(-c2ccncc2NC(=O)c2cccc(-c3ccc(N4CCNCC4)cc3)n2)nc(C(F)(F)F)n1 [Example 525, 6-(4-Piperazin-1-yl-phenyl)-pyridine-2-carboxylic acid [4-(6-amino-2-trifluoromethyl-pyrimidin-4-yl)-pyridin-3-yl]-amide] |
|  |  |  | < 1 | < 1 | < 1 | CC1(N)CCCN(c2ccncc2NC(=O)c2nc(-c3ccccc3F)ncc2N)C1 (stereo not drawn) [Example 676, 5-Amino-2-(2-fluoro-phenyl)-pyrimidine-4-carboxylic acid (3-amino-3-methyl-3,4,5,6-tetrahydro-2H-[1,4′]bi-pyridinyl-3′-yl)-amide] |
|  |  |  | 1 to 10 | < 1 | < 1 | Cc1ccccc1-c1ccncc1NC(=O)c1nc(-c2ccccc2F)ccc1N [Example 586, 3-amino-6-(2-fluoro-phenyl)-pyridine-2-carboxylic acid (4-o-tolyl-pyridin-3-yl)-amide] |
| < 1 | < 1 | < 1 |  |  |  | CC(C)NC(=O)c1ccc(F)c(-c2ccc(N)c(C(=O)Nc3cnccc3N3C[C@@H](N)C[C@H](OC(=O)c4ccccc4)C3)n2)c1 (stereo in doubt) [Example 294, Benzoic acid 5-amino-3′-{[3-amino-6-(2-fluoro-5-isopropylcarbamoyl-phenyl)-pyridine-2-carbonyl]-amino}-3,4,5,6-tetrahydro-2H-[1,4′]bi-pyridinyl-3-yl ester] |
|  |  |  | < 1 | < 1 | < 1 | COc1cc(N)nc(-c2ccncc2NC(=O)c2nc(-c3c(F)cccc3F)ccc2N)c1 [Example 622, 3-Amino-6-(2,6-difluoro-phenyl)-pyridine-2-carboxylic acid (6-amino-4-methoxy-[2,4′]bipyridinyl-3′-yl)-amide] |
| < 1 | < 1 | < 1 |  |  |  | Nc1ccc(-c2cccc(-c3ccccc3)c2)nc1C(=O)Nc1cnccc1N1CCC[C@H](N)C1 [Example 458, 3-Amino-6-biphenyl-3-yl-pyridine-2-carboxylic acid (3-amino-3,4,5,6-tetrahydro-2H-[1,4′]bipyridinyl-3′-yl)-amide] |
| < 1 | < 1 | < 1 |  |  |  | Nc1ccc(-c2ccsc2)nc1C(=O)Nc1cnccc1N1CCC[C@H](N)C1 [Example 449, 3-Amino-6-thiophen-3-yl-pyridine-2-carboxylic acid (3-amino-3,4,5,6-tetrahydro-2H-[1,4′]bipyridinyl-3′-yl)-amide] |
| < 1 | < 1 | < 1 |  |  |  | COc1cccc(-c2nc(C(=O)Nc3cnccc3N3CCC[C@H](N)C3)c(N)cc2F)n1 [Example 512, 5-Amino-3-fluoro-6′-methoxy-[2,2′]bipyridinyl-6-carboxylic acid (3-amino-3,4,5,6-tetrahydro-2H-[1,4′]bipyridinyl-3′-yl)-amide] |
|  |  |  | < 1 | < 1 | < 1 | Cc1csc(-c2ccc(N)c(C(=O)Nc3cnccc3-c3cc(N)nc(C)n3)n2)c1 [Example 556, 3-Amino-6-(4-methyl-thiophen-2-yl)-pyridine-2-carboxylic acid [4-(6-amino-2-methyl-pyrimidin-4-yl)-pyridin-3-yl]-amide] |
| < 1 | < 1 | < 1 |  |  |  | COc1ccc(F)cc1-c1nc(C(=O)Nc2cnccc2N2CCC[C@H](N)C2)c(N)cc1F [Example 501, 3-Amino-5-fluoro-6-(5-fluoro-2-methoxy-phenyl)-pyridine-2-carboxylic acid (3-amino-3,4,5,6-tetrahydro-2H-[1,4′]bipyridinyl-3′-yl)-amide] |
| < 1 | < 1 | < 1 |  |  |  | Nc1cnc(-c2c(F)cccc2F)nc1C(=O)Nc1cnccc1N1CC[C@@H](F)[C@H](N)C1 (stereo in doubt) [Example 256, 5-Amino-2-(2,6-difluoro-phenyl)-pyrimidine-4-carboxylic acid (3-amino-4-fluoro-3,4,5,6-tetrahydro-2H-[1,4′]bipyridinyl-3′-yl)-amide] |
| 1 to 10 | < 1 | < 1 |  |  |  | NC(=O)c1ccc(N2CCCCC2)c(NC(=O)c2nccnc2N)c1 [Example 170, 3-amino-N-(5-carbamoyl-2-(piperidin-1-yl)phenyl)pyrazine-2-carboxamide] |
|  | < 1 |  |  |  |  | CC1CC(N)CN(c2ccncc2NC(=O)c2ccc(F)c(-c3ccccc3F)n2)C1 (stereo not drawn) [Example 287, 5-Fluoro-6-(2-fluoro-phenyl)-pyridine-2-carboxylic acid (3-amino-5-methyl-3,4,5,6-tetra-hydro-2H-[1,4′]bipyridinyl-3′-yl)-amide] |
|  |  |  |  | < 1 | < 1 | Nc1ccc(C2CCCCC2)nc1C(=O)Nc1cnccc1N1CCC[C@H](N)C1 [Example 636, 3-Amino-6-cyclohexyl-pyridine-2-carboxylic acid (3-amino-3,4,5,6-tetrahydro-2H-[1,4′]bipyridinyl-3′-yl)-amide] |
